In ChEMBL document CHEMBL1201862, “PubChem BioAssay data set” (2004):
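Method: 48-hour compound exposure of cells in 96-well plates, five concentrations, linear interpolation of endpoints. GI50: concentration for 50% inhibition of growth.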 Active and inactive are the calls of the source. Cut-off read from the data, not from the text of the source: active = GI50 up to about 1.1 µM and inactive = higher.

Experiments:
Test in all cases: NCI-60 cell line screen, 48 h
786-0 = tested on: 786-0
A498 = tested on: A498
A549 = tested on: A549
ACHN = tested on: ACHN
CAKI-1 = tested on: CAKI-1
CCRF-CEM = tested on: CCRF-CEM
COLO 205 = tested on: COLO 205
DLD-1 = tested on: DLD-1
DMS-114 = tested on: DMS-114
DMS-273 = tested on: DMS-273
EKVX = tested on: EKVX
HCC 2998 = tested on: HCC 2998
HCT-116 = tested on: HCT-116
HCT-15 = tested on: HCT-15
HL-60 = tested on: HL-60
HOP-18 = tested on: HOP-18
HOP-62 = tested on: HOP-62
HOP-92 = tested on: HOP-92
HT-29 = tested on: HT-29
IGROV-1 = tested on: IGROV-1
K562 = tested on: K562
KM-20L2 = tested on: KM-20L2
KM12 = tested on: KM12
LOX IMVI = tested on: LOX IMVI
LXFL 529 = tested on: LXFL 529
M14 = tested on: M14
M19-MEL = tested on: M19-MEL
MOLT-4 = tested on: MOLT-4
Malme-3M = tested on: Malme-3M
NCI-H226 = tested on: NCI-H226
NCI-H23 = tested on: NCI-H23
NCI-H460 = tested on: NCI-H460
NCI-H522 = tested on: NCI-H522
OVCAR-3 = tested on: OVCAR-3
OVCAR-4 = tested on: OVCAR-4
OVCAR-5 = tested on: OVCAR-5
OVCAR-8 = tested on: OVCAR-8
RPMI-8226 = tested on: RPMI-8226
RXF 393 = tested on: RXF 393
RXF 631 = tested on: RXF 631
SF-268 = tested on: SF-268
SF-295 = tested on: SF-295
SF-539 = tested on: SF-539
SK-MEL-28 = tested on: SK-MEL-28
SK-MEL-2 = tested on: SK-MEL-2
SK-MEL-5 = tested on: SK-MEL-5
SK-OV-3 = tested on: SK-OV-3
SN12C = tested on: SN12C
SNB-19 = tested on: SNB-19
SNB-75 = tested on: SNB-75
SNB-78 = tested on: SNB-78
SR = tested on: SR
SW-620 = tested on: SW-620
TK-10 = tested on: TK-10
U-251 = tested on: U-251
UACC-257 = tested on: UACC-257
UACC-62 = tested on: UACC-62
UO-31 = tested on: UO-31
XF498 = tested on: XF498
BT-549 = tested on: BT-549
DU-145 = tested on: DU-145
Hs-578T = tested on: Hs-578T
MCF7 = tested on: MCF7
MDA-MB-231 = tested on: MDA-MB-231
MDA-MB-435 = tested on: MDA-MB-435
MDA-N = tested on: MDA-N
PC-3 = tested on: PC-3
T47D = tested on: T47D

`O=c1[nH]c(=O)n(C2OC(CO)C(O)C2O)cc1OCc1ccccc1` (stereo unspecified) was tested, and the GI50 (786-0) was > 100 µM (inactive), the GI50 (A498) was > 100 µM (inactive) and the GI50 (A549) was > 87.3 µM (inactive). The GI50 (ACHN) was > 100 µM (inactive), the GI50 (CAKI-1) was > 100 µM (inactive) and the GI50 (CCRF-CEM) was > 60.5 µM (inactive). For the same compound, the GI50 (COLO 205) was > 64.7 µM (inactive), the GI50 (DLD-1) was > 59.8 µM (inactive) and the GI50 (DMS-114) was > 57.9 µM (inactive). The GI50 (DMS-273) was > 75.9 µM (inactive), the GI50 (EKVX) was > 100 µM (inactive) and the GI50 (HCC 2998) was > 100 µM (inactive). The GI50 (HCT-116) was > 63.4 µM (inactive), the GI50 (HCT-15) was greater than 59 µM and the GI50 (HL-60) was > 52.8 µM (inactive). The GI50 (HOP-18) was > 100 µM (inactive), the GI50 (HOP-62) was > 100 µM (inactive) and the GI50 (HOP-92) was > 100 µM (inactive). For the same compound, the GI50 (HT-29) was > 100 µM (inactive), the GI50 (IGROV-1) was > 100 µM (inactive) and the GI50 (K562) was > 73.3 µM (inactive). For the same compound, the GI50 (KM-20L2) was > 81.7 µM (inactive), the GI50 (KM12) was > 100 µM (inactive) and the GI50 (LOX IMVI) was > 31.6 µM (inactive). The GI50 (LXFL 529) was > 80.4 µM (inactive), the GI50 (M14) was > 100 µM (inactive) and the GI50 (M19-MEL) was > 95.5 µM (inactive). The GI50 (MOLT-4) was > 100 µM (inactive), the GI50 (Malme-3M) was > 100 µM (inactive) and the GI50 (NCI-H226) was > 100 µM (inactive). The GI50 (NCI-H23) was > 100 µM (inactive), the GI50 (NCI-H460) was > 66.7 µM (inactive) and the GI50 (NCI-H522) was > 100 µM (inactive). The GI50 (OVCAR-3) was > 100 µM (inactive), the GI50 (OVCAR-4) was > 100 µM (inactive) and the GI50 (OVCAR-5) was > 100 µM (inactive). The GI50 (OVCAR-8) was > 77.6 µM (inactive), the GI50 (RPMI-8226) was > 57.9 µM (inactive) and the GI50 (RXF 393) was > 57.4 µM (inactive). For the same compound, the GI50 (RXF 631) was > 100 µM (inactive), the GI50 (SF-268) was > 100 µM (inactive) and the GI50 (SF-295) was > 100 µM (inactive). For the same compound, the GI50 (SF-539) was > 100 µM (inactive), the GI50 (SK-MEL-28) was > 100 µM (inactive) and the GI50 (SK-MEL-2) was > 100 µM (inactive). The GI50 (SK-MEL-5) was > 100 µM (inactive), the GI50 (SK-OV-3) was > 100 µM (inactive) and the GI50 (SN12C) was > 100 µM (inactive). For the same compound, the GI50 (SNB-19) was > 100 µM (inactive), the GI50 (SNB-75) was > 100 µM (inactive) and the GI50 (SNB-78) was > 100 µM (inactive). The GI50 (SR) was > 50.1 µM (inactive), the GI50 (SW-620) was > 57 µM (inactive) and the GI50 (TK-10) was > 100 µM (inactive). The GI50 (U-251) was > 58.2 µM (inactive), the GI50 (UACC-257) was > 100 µM (inactive) and the GI50 (UACC-62) was > 100 µM (inactive). For the same compound, the GI50 (UO-31) was > 100 µM (inactive) and the GI50 (XF498) was > 100 µM (inactive).
`CN(C)CCNC(=O)c1cccc2nc3c(ccc4ccccc43)nc12` was tested, and the GI50 (786-0) was 2.91 µM (inactive), the GI50 (A498) was 2.95 µM (inactive) and the GI50 (A549) was 1.21 µM (inactive). The GI50 (ACHN) was 1.41 µM (inactive), the GI50 (BT-549) was 10.6 µM (inactive) and the GI50 (CAKI-1) was 3.37 µM (inactive). The GI50 (CCRF-CEM) was 1.16 µM (inactive), the GI50 (COLO 205) was 1.6 µM (inactive) and the GI50 (DLD-1) was 1.79 µM (inactive). The GI50 (DMS-114) was 2.69 µM (inactive), the GI50 (DMS-273) was 1.54 µM (inactive) and the GI50 (DU-145) was 4.85 µM (inactive). For the same compound, the GI50 (EKVX) was 5.74 µM (inactive), the GI50 (HCC 2998) was 1.98 µM (inactive) and the GI50 (HCT-116) was 1.75 µM (inactive). The GI50 (HCT-15) was 1.61 µM, the GI50 (HL-60) was 1.17 µM (inactive) and the GI50 (HOP-18) was 6.53 µM (inactive). For the same compound, the GI50 (HOP-62) was 2.25 µM (inactive), the GI50 (HOP-92) was 3.61 µM (inactive) and the GI50 (HT-29) was 1.56 µM (inactive). For the same compound, the GI50 (Hs-578T) was 3.62 µM (inactive), the GI50 (IGROV-1) was 2.9 µM (inactive) and the GI50 (K562) was 1.52 µM (inactive). The GI50 (KM-20L2) was 1.51 µM (inactive), the GI50 (KM12) was 2.09 µM (inactive) and the GI50 (LOX IMVI) was 1.08 µM (active). The GI50 (LXFL 529) was 2.51 µM (inactive), the GI50 (M14) was 2.49 µM (inactive) and the GI50 (M19-MEL) was 1.56 µM (inactive). The GI50 (MCF7) was 0.476 µM (active), the GI50 (MDA-MB-231) was 1.81 µM (inactive) and the GI50 (MDA-MB-435) was 3.33 µM (inactive). The GI50 (MDA-N) was 1.72 µM (inactive), the GI50 (MOLT-4) was 0.327 µM (active) and the GI50 (Malme-3M) was 1.56 µM (inactive). For the same compound, the GI50 (NCI-H226) was 2.9 µM (inactive), the GI50 (NCI-H23) was 3.9 µM (inactive) and the GI50 (NCI-H460) was 0.479 µM (active). For the same compound, the GI50 (NCI-H522) was 4.22 µM (inactive), the GI50 (OVCAR-3) was 7.89 µM (inactive) and the GI50 (OVCAR-4) was 2.21 µM (inactive). For the same compound, the GI50 (OVCAR-5) was 4.55 µM (inactive), the GI50 (OVCAR-8) was 1.73 µM (inactive) and the GI50 (PC-3) was 2.79 µM (inactive). For the same compound, the GI50 (RPMI-8226) was 1.91 µM (inactive), the GI50 (RXF 393) was 3.2 µM (inactive) and the GI50 (RXF 631) was 1.02 µM (active). The GI50 (SF-268) was 0.675 µM (active), the GI50 (SF-295) was 2.56 µM (inactive) and the GI50 (SF-539) was 1.8 µM (inactive). The GI50 (SK-MEL-28) was 2.05 µM (inactive), the GI50 (SK-MEL-2) was 1.91 µM (inactive) and the GI50 (SK-MEL-5) was 1.76 µM (inactive). For the same compound, the GI50 (SK-OV-3) was 5.42 µM (inactive), the GI50 (SN12C) was 2.48 µM (inactive) and the GI50 (SNB-19) was 5.06 µM (inactive). For the same compound, the GI50 (SNB-75) was 3.9 µM (inactive), the GI50 (SNB-78) was 5.16 µM (inactive) and the GI50 (SR) was 0.362 µM (active). For the same compound, the GI50 (SW-620) was 1.1 µM (active), the GI50 (T47D) was 6.11 µM (inactive) and the GI50 (TK-10) was 7.93 µM (inactive). The GI50 (U-251) was 1.47 µM (inactive), the GI50 (UACC-257) was 1.74 µM (inactive) and the GI50 (UACC-62) was 2.45 µM (inactive). For the same compound, the GI50 (UO-31) was 3.38 µM (inactive).
